Test results as given in patent publication US11324750B2, “Compositions and methods for the treatment of severe acute respiratory syndrome coronavirus 2 (SARS-CoV-2) infection” (Children's Hospital Medical Center, priority 2020, dated 2022).

Tested on: severe COVID-19 patients
Assay: Randomized controlled trial, clinical outcomes (seven-category ordinal scale, chest CT, mortality, lymphocyte recovery, supportive treatments)
Type: in vivo, human
Conditions: for CT scan follow-up within 14 days: Improvement, %: P 0.07 vs control
Description: As of the effective date of this application, no therapeutics have yet been proven effective for the treatment of severe COVID-19 with cytokine storm. Ruxolitinib, a potent and selective oral inhibitor of Janus kinase (JAK) 1 and JAK2, was proposed by Applicant to be beneficial in the treatment of cytokine storm. Applicant conducted a prospective, multicenter, single-blind, randomized controlled trial involving participants diagnosed as severe COVID-19 patients. The enrolled patients were randomly separated into two groups with a 1:1 allocation by an independent statistician in blocks of 4 for all 3 sites. Study number and treatment allocation codes were provided in sequentially numbered opaque envelops. Intervention group is treated with ongoing oral intake 5 mg of ruxolitinib (Jakafi®, Novartis Pharma Stein AG, Switzerland) twice a day based on the standard-of-care (SoC); the control group is treated with placebo plus SoC. The primary endpoint was the incidence of serious adverse events occurring up to 28 days and the time to clinical improvement. The secondary endpoint is the overall mortality at D28. This trial is registered at www.chictr.org.cn as ChiCTR-OPN-2000029580.
A prospective, single-blind, randomized controlled trial was designed. Participants diagnosed as positive for COVID-19 were enrolled for screening in three hospitals including Tongji hospital and No. 1 hospital in Wuhan and the Third Xiangya hospital in Changsha, China. The original protocol included secondary randomization in a treatment group for infusion of mesenchymal stem cells if the patient's clinical response had deteriorated within seven days after first randomization. Because no deterioration had occurred in patients of the treatment group within seven days after first randomization and secondary randomization was unnecessary, the protocol was updated correspondingly. This study was approved by the Medical ethics committee of Tongji Hospital, Tongji Medical College, Huazhong University of Science and Technology, Wuhan, China, registered at www.chictr.org.cn as ChiCTR-OPN-2000029580.
Participants. All participants were required to meet the following inclusion criteria: (1) enrolled patients met the diagnostic criterial for COVID-19. The diagnosis and the illness severity of COVID-19 were defined according to the Chinese management guideline for COVID-19 (version 5.0)^28; (2) patients were eligible if they were 18 years or older and younger than 75 years. (3) only severe cases were enrolled. Exclusion criterial included: (1) patients with other malignant tumors in the course of treatment; (2) patients with severe cardiovascular and metabolic disease in unstable status, even if treated with drugs; (3) patients with mental or severe psychiatric disorder who are unable to understand or abide the study protocols; (4) patients needing orotracheal intubation or invasive ventilation; (5) patients who cannot guarantee to complete the scheduled treatment plan and follow-up; (6) women of child-bearing age having positive pregnancy test or still lactating; (7) patients having other active infections; (8) patients having any conditions deemed to potentially affect the safety of the study protocols. Written informed consent was obtained from all patients or the patients' legal representative if the patient was too unwell to provide the consent.
Randomization and masking. The enrolled patients were then randomly allocated into two groups with a 1:1 allocation ratio by an independent statistician using permuted blocks of 4 for all 3 sites. Patient unique identification number and treatment allocation codes were provided in sequentially numbered opaque envelops. Treating physicians were aware of group allocations while the enrolled participants, staff at trial sites, CT radiologists and laboratory personnel were masked to the trial group assignment.
Procedures. The first day of randomization was designated as D0. […]

Structure (SMILES): N#CC[C@H](C1CCCC1)n1cc(-c2ncnc3[nH]ccc23)cn1 [Ruxolitinib, (3R)-3-cyclopentyl-3-[4-(7H-pyrrolo[2,3-d]pyrimidin-4-yl)pyrazol-1-yl]propanenitrile]
- CT scan follow-up within 14 days: Progression, % (chest CT, N = 20): (5.0%)
- CT scan follow-up within 14 days: Stable, % (chest CT, N = 20): (5.0%)
- CT scan follow-up within 14 days: Improvement, % (chest CT, N = 20): (90.0%)
- CT scan follow-up within 14 days: Improvement, % (chest CT, N = 20, listed as ruxolitinib): 90%
- Time from randomization to death (median (IQR)): 0 days
- Time from randomization to discharge (median (IQR), P 0.94 vs control): 17 days
- Time to lymphocyte recovery (median (IQR), patients with lymphopenia, log-rank P 0.03 vs control): 5 days
- Time to clinical improvement (median (IQR), primary efficacy endpoint, log-rank P 0.15 vs control): 12 days
- Clinical improvement Day 28, % (seven-category ordinal scale, N = 20, P 0.23 vs control): (100.0%)
- Clinical improvement Day 14, % (seven-category ordinal scale, N = 20, P 0.35 vs control): (60.0%)
- Clinical improvement Day 7, % (seven-category ordinal scale, N = 20, P 0.41 vs control): (20.0%)
- Clinical improvement Day 21, % (seven-category ordinal scale, N = 20, P 1.00 vs control): (90.0%)
